Test results from paper PMC12381739, “Druglike Molecular Degraders of the Oncogenic RNA-Binding Protein HuR” (JACS Au, 2025).

Columns and labels:
HuR [1] = biological target: T1, HuR (Homo sapiens, UniProt Q15717); assay: Fluorescence binding assay using intrinsic fluorescence of the PROTAC with titrated HuR protein; conditions: fixed 100 μM degrader, increasing HuR; fluorescence rises over 0.0075–0.1 nM and 0.125–1 nM
Description: To elucidate the mechanism underlying the observed biphasic degradation pattern, we generated a docking model using the Schrödinger software. […] This preferential binding correlates with the initial phase of degradation observed at low degrader concentrations (5 nM to 100 nM; Figures B and B and ). At higher degrader concentrations (e.g., 10 μM), different complex engagement may occur at the P2 RNA-binding pocket. […] Unlike the previous displacement assay–which monitored competition between labeled RNA and HuR–we utilized the intrinsic fluorescence of the PROTAC derivative at a fixed concentration while titrating HuR protein. This approach allowed us to detect fluorescence changes corresponding to HuR binding events. […] Fluorescence increased over two separate concentration ranges–0.0075–0.1 nM and 0.125–1 nM–with a clear dip between 0.1 and 0.125 nM. […]
As part of the dual-binding evaluation, Pro-HuR3 fluorescence was first characterized across a concentration range (1–100 μM; 1, 2, 5, 10, 20, 50, and 100 μM). The assays were performed in PBS buffer (20 mM sodium phosphate, 150 mM NaCl, 1 mM dithiothreitol, 0.05% PLURONIC-127, 15% DMSO) at 293 K. Fluorescence spectra were recorded using the Synergy H1 Hybrid Multi-Mode Microplate Reader (Biotek, Agilent), with excitation and emission scans identifying optimal wavelengths of 405–415 nm (excitation) and 520 nm (emission), respectively. […]

HuR [2] = biological target: T1, HuR; assay: HuR western blot, dose-dependent treatment (Figure S7, cell line not stated); type: cell-based; parameters: endogenous in cells; host or cells: MCF-7 or MDA-MB-231 (not given); conditions: 48 h, normalized to vinculin
Description: MDA-MB-231 and MCF-7 cells were seeded in 6-well plates at approximately 60% confluency in complete growth medium and treated with synthesized compounds at the indicated concentrations or with vehicle for 24 h. Total protein was extracted using RIPA cell lysis buffer (BioPrep) containing a protease inhibitor, and protein concentration was measured using the BCA protein assay (Sigma-Aldrich) according to the manufacturer’s protocol. Approximately 30 μg of total protein were resolved on a 12% SDS-acrylamide gel and transferred to a PVDF membrane (Immobilon FL transfer membrane; Merck). The membrane was washed with 1× Tris-buffered saline (TBS) containing 0.1% (v/v) Tween-20 (TBST; Tris-base, pH 7.6, NaCl, and Tween-20) and blocked in 1× TBST containing 5% (w/v) BSA for 2 h at room temperature. The membrane was then incubated overnight at 4 °C with primary antibodies: a 1:1000 dilution of rabbit anti-ELAVL1/HuR (Cell Signaling Technology, #12582), a 1:1000 dilution of mouse anti-Bcl2 (Cell Signaling Technology, #15071), or a 1:10,000 dilution of rabbit anti-Vinculin (Cell Signaling Technology, #13901) in 1× TBST containing 5% (w/v) BSA. […] The fold change in the expression of the target proteins (HuR or Bcl2) was calculated by normalizing the band intensity to the Vinculin band intensity using ImageJ. […]

HuR [3] = biological target: T1, HuR; assay: Proteasome inhibitor (bortezomib, MG132) mechanistic validation of HuR degradation in MCF-7 cells; type: cell-based; parameters: endogenous in cells; host or cells: MCF-7; conditions: MCF-7, with bortezomib or MG132
Description: MCF-7 cells were seeded in 6-well plates at approximately 60% confluency and incubated for 12 h. The cells were then treated with 1 μM of the proteasome inhibitors Bortezomib (Thermo Fisher Scientific, CAS: 179324-69-7) and MG132 (Aaron Chemicals, CAS: 1211877-36-9). After treatment, the synthesized compounds were added at a concentration of 10 μM, and the cells were incubated for 5 h.

HuR [4] = biological target: T1, HuR; assay: HuR protein expression by western blot in MDA-MB-231 cells; type: cell-based; parameters: endogenous in cells; conditions: 48 h
Description: Total protein was extracted using RIPA cell lysis buffer (BioPrep) containing a protease inhibitor, and protein concentration was measured using the BCA protein assay (Sigma-Aldrich) according to the manufacturer’s protocol. Approximately 30 μg of total protein were resolved on a 12% SDS-acrylamide gel and transferred to a PVDF membrane (Immobilon FL transfer membrane; Merck). The membrane was washed with 1× Tris-buffered saline (TBS) containing 0.1% (v/v) Tween-20 (TBST; Tris-base, pH 7.6, NaCl, and Tween-20) and blocked in 1× TBST containing 5% (w/v) BSA for 2 h at room temperature. The membrane was then incubated overnight at 4 °C with primary antibodies: a 1:1000 dilution of rabbit anti-ELAVL1/HuR (Cell Signaling Technology, #12582), a 1:1000 dilution of mouse anti-Bcl2 (Cell Signaling Technology, #15071), or a 1:10,000 dilution of rabbit anti-Vinculin (Cell Signaling Technology, #13901) in 1× TBST containing 5% (w/v) BSA. Following primary antibody incubation, the membrane was washed with 1× TBST and incubated with a 1:10,000 dilution of the appropriate horseradish-peroxidase-conjugated secondary antibody (antirabbit IgG: Cell Signaling, #7074 or antimouse IgG: Cell Signaling, #7076) at room temperature for 2 h. […] The fold change in the expression of the target proteins (HuR or Bcl2) was calculated by normalizing the band intensity to the Vinculin band intensity using ImageJ.

T1 sequence (Q15717 whole entry): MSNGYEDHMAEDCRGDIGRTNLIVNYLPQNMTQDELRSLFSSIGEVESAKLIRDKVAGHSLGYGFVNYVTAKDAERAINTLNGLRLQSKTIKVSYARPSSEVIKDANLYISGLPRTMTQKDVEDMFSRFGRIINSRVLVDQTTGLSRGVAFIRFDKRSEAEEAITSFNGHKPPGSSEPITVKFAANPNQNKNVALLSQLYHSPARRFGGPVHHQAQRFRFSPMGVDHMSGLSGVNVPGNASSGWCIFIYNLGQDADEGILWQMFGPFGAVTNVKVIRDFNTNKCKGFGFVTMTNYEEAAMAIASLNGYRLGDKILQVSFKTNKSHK

binding response on HuR titration (intrinsic fluorescence) (HuR [1]): two distinct IC50 values | HuR protein level relative to UT (HuR [2]; 0.01 nM): 113% | HuR protein level relative to UT (HuR [2]; 0.1 nM): 108% | degrader activity under 26S proteasome inhibition (HuR [3]): completely impaired | reduction of HuR expression (HuR [4]; MDA-MB-231, 10 nM): 38% | reduction of HuR expression (HuR [4]; MDA-MB-231, 10 μM): ~75%
Compound: O=C1CCC(N2C(=O)c3cccc(NCc4cn(-c5ccc6sc(C(=O)O)cc6c5)nn4)c3C2=O)C(=O)N1 (stereo not drawn) [PRO-HuR3]
